From ChEMBL document CHEMBL4507256 (2021)

Legend:
[1] = target: Serine/threonine-protein kinase NLK (Homo sapiens) (UniProt Q9UBE8); conditions: Compound concentration 1000.0 nM
[2] = target: Rhodopsin kinase GRK7 (Homo sapiens) (UniProt Q8WTQ7); conditions: Compound concentration 1000.0 nM
[3] = system: Tyrosine-protein kinase ABL1 (Homo sapiens), P00519 [F317I]; conditions: Compound concentration 1000.0 nM
[4] = target: Serine/threonine-protein kinase PAK 3 (Homo sapiens) (UniProt O75914); conditions: Compound concentration 1000.0 nM
Sequence of Serine/threonine-protein kinase PAK 3 (Homo sapiens) (O75914 whole entry, looked up): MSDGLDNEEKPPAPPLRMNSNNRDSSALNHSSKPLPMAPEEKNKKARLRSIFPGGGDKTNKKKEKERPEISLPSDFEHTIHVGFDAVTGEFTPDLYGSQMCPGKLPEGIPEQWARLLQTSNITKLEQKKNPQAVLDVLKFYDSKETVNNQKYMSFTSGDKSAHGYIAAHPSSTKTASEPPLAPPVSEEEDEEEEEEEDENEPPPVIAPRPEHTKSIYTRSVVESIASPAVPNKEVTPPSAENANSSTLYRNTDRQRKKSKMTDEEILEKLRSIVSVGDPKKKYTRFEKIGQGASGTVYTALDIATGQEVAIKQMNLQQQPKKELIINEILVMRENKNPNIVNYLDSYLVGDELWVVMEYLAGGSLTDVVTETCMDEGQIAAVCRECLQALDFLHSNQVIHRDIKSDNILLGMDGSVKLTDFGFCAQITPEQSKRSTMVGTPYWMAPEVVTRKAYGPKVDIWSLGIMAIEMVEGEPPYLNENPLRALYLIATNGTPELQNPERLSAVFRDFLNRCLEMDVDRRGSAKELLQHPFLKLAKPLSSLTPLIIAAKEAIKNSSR

[5] = target: Serine/threonine-protein kinase WNK4 (Homo sapiens) (UniProt Q96J92); conditions: Compound concentration 1000.0 nM
[6] = target: Cytoplasmic tyrosine-protein kinase BMX (Homo sapiens) (UniProt P51813); conditions: Compound concentration 1000.0 nM
Sequence of Cytoplasmic tyrosine-protein kinase BMX (Homo sapiens) (P51813 whole entry): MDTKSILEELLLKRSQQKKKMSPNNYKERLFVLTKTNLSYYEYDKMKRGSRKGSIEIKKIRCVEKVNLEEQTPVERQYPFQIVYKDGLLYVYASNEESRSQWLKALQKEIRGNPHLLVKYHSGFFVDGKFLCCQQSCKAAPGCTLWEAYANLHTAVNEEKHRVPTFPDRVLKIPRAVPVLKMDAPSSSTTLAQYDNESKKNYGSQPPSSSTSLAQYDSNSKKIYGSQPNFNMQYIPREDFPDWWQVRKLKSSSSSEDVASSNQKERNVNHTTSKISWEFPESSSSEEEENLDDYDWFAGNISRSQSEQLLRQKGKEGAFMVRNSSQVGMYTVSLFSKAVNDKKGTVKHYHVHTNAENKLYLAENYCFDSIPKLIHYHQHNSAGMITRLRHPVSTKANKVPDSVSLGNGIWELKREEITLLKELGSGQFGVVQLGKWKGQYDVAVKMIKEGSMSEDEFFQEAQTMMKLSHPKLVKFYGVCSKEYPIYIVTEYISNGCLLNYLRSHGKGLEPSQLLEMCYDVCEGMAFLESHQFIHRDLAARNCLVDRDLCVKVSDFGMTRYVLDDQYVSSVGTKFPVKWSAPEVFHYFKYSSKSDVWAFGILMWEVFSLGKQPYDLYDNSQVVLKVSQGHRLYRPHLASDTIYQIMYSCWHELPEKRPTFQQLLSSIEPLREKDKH

[7] = target: Serine/threonine-protein kinase mTOR (Homo sapiens) (UniProt P42345); conditions: Compound concentration 1000.0 nM
[8] = target: Serine/threonine-protein kinase Nek3 (Homo sapiens) (UniProt P51956); conditions: Compound concentration 1000.0 nM
[9] = target: Rhodopsin kinase GRK1 (Homo sapiens) (UniProt Q15835); conditions: Compound concentration 1000.0 nM
[10] = target: T1, 5-hydroxytryptamine receptor 3A (Homo sapiens) (UniProt P46098); conditions: Compound concentration 10.0 uM
T1 sequence (whole entry): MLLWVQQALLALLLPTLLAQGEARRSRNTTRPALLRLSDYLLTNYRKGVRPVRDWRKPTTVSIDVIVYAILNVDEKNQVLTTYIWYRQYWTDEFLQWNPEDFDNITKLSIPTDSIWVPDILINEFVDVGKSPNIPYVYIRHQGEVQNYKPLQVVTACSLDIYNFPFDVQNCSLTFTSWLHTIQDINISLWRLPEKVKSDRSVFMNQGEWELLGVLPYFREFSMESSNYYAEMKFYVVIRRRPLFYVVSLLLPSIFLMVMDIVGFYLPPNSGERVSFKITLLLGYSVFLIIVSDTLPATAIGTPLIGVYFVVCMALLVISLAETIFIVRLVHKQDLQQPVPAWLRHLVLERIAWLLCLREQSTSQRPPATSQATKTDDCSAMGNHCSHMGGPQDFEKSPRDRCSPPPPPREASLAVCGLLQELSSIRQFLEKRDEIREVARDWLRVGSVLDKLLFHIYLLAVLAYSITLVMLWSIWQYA

[11] = target: Myosin light chain kinase 2, skeletal/cardiac muscle (Homo sapiens) (UniProt Q9H1R3); conditions: Compound concentration 1000.0 nM
[12] = target: Phosphatidylinositol 3-kinase catalytic subunit type 3 (Homo sapiens) (UniProt Q8NEB9); conditions: Compound concentration 1000.0 nM
[13] = target: Fibroblast growth factor receptor 1 (Homo sapiens) (UniProt P11362); conditions: Compound concentration 1000.0 nM
[14] = target: D(1B) dopamine receptor (Homo sapiens) (UniProt P21918); conditions: Compound concentration 10.0 uM
Sequence of D(1B) dopamine receptor (Homo sapiens) (P21918 whole entry, the tested form may be a part): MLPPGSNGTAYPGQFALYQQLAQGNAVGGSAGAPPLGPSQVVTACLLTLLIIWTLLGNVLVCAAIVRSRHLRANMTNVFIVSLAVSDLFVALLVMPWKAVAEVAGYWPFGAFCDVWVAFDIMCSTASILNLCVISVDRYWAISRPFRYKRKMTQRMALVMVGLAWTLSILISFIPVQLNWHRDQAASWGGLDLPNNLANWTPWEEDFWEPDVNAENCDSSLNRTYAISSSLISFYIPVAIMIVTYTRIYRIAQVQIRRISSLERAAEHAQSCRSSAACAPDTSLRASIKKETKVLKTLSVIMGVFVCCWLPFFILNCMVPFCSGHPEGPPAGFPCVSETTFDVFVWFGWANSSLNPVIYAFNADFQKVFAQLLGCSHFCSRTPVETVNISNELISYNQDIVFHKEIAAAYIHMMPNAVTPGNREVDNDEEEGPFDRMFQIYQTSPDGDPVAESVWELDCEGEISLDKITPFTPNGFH

[15] = target: LIM domain kinase 2 (Homo sapiens) (UniProt P53671); conditions: Compound concentration 1000.0 nM
[16] = target: Serine/threonine-protein kinase DCLK2 (Homo sapiens) (UniProt Q8N568); conditions: Compound concentration 1000.0 nM
[17] = target: Serine/threonine-protein kinase 17B (Homo sapiens) (UniProt O94768); conditions: Compound concentration 1000.0 nM
[18] = target: Serine/threonine-protein kinase DCLK1 (Homo sapiens) (UniProt O15075); conditions: Compound concentration 1000.0 nM
[19] = target: Glycogen synthase kinase-3 beta (Homo sapiens) (UniProt P49841); conditions: Compound concentration 1000.0 nM
[20] = target: Maternal embryonic leucine zipper kinase (Homo sapiens) (UniProt Q14680); conditions: Compound concentration 1000.0 nM
[21] = target: Dual specificity protein kinase CLK2 (Homo sapiens) (UniProt P49760); conditions: Compound concentration 1000.0 nM
Sequence of Dual specificity protein kinase CLK2 (Homo sapiens) (P49760 whole entry, looked up): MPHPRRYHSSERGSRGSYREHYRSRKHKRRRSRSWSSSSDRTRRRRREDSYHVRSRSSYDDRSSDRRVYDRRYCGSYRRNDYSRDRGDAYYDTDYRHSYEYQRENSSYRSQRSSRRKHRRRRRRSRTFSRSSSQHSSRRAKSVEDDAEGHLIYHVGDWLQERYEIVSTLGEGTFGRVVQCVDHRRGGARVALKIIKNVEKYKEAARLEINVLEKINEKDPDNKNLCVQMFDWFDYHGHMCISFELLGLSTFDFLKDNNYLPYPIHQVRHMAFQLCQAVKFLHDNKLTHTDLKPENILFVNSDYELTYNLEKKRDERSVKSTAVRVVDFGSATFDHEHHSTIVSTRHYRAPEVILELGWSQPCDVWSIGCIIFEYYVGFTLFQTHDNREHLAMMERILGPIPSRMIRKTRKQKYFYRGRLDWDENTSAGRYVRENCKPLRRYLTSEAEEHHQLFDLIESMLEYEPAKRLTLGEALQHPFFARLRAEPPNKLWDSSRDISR

[22] = target: Mitogen-activated protein kinase 8 (Homo sapiens) (UniProt P45983); conditions: Compound concentration 1000.0 nM
[23] = target: Serine/threonine-protein kinase BRSK2 (Homo sapiens) (UniProt Q8IWQ3); conditions: Compound concentration 1000.0 nM
[24] = target: Serine/threonine-protein kinase 10 (Homo sapiens) (UniProt O94804); conditions: Compound concentration 1000.0 nM
[25] = target: Cyclin-dependent kinase 17 (Homo sapiens) (UniProt Q00537); conditions: Compound concentration 1000.0 nM
[26] = system: Phosphatidylinositol 4,5-bisphosphate 3-kinase catalytic subunit alpha isoform (Homo sapiens), P42336 [I800L]; conditions: Compound concentration 1000.0 nM
[27] = system: Receptor-type tyrosine-protein kinase FLT3 (Homo sapiens), P36888 [K663Q]; conditions: Compound concentration 1000.0 nM
[28] = target: Tyrosine-protein kinase JAK2 (Homo sapiens) (UniProt O60674); conditions: Compound concentration 1000.0 nM
[29] = target: SNF-related serine/threonine-protein kinase (Homo sapiens) (UniProt Q9NRH2); conditions: Compound concentration 1000.0 nM
[30] = system: Phosphatidylinositol 4,5-bisphosphate 3-kinase catalytic subunit alpha isoform (Homo sapiens), P42336 [M1043I]; conditions: Compound concentration 1000.0 nM
[31] = target: Serine/threonine-protein kinase Nek5 (Homo sapiens) (UniProt Q6P3R8); conditions: Compound concentration 1000.0 nM
[32] = system: Epidermal growth factor receptor (Homo sapiens), P00533 [L858R,T790M]; conditions: Compound concentration 1000.0 nM
[33] = system: Mast/stem cell growth factor receptor Kit (Homo sapiens), P10721 [V559D]; conditions: Compound concentration 1000.0 nM
Sequence of Mast/stem cell growth factor receptor Kit (Homo sapiens), P10721 [V559D] (P10721 whole entry V559D): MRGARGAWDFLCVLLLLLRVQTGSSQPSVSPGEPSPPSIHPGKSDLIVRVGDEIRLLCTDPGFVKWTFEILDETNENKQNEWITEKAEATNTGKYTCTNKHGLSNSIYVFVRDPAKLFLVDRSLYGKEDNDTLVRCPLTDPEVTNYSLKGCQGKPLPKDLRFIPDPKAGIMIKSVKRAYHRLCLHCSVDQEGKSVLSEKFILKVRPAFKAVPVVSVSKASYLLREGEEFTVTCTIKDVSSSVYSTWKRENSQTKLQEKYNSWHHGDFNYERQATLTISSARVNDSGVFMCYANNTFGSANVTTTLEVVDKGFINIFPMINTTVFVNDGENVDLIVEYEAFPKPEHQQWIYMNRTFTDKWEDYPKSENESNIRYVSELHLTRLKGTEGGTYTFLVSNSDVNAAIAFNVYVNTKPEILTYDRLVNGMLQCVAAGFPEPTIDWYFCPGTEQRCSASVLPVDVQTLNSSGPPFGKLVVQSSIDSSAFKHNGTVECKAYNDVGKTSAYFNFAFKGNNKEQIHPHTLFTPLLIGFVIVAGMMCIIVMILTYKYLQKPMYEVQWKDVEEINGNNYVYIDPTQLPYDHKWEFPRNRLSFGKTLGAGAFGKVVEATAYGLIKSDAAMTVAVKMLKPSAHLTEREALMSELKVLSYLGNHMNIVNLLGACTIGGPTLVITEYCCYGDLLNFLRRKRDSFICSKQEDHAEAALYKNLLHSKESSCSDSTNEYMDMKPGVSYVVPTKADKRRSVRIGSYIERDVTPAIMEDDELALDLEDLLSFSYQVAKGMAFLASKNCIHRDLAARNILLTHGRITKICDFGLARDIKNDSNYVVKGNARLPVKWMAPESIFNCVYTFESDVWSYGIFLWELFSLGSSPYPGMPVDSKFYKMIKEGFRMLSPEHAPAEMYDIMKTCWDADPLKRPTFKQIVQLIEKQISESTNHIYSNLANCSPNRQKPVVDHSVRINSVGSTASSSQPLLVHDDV

[34] = target: Serine/threonine-protein kinase pim-2 (Homo sapiens) (UniProt Q9P1W9); conditions: Compound concentration 1000.0 nM
[35] = target: Serine/threonine-protein kinase Sgk1 (Homo sapiens) (UniProt O00141); conditions: Compound concentration 1000.0 nM
[36] = target: cGMP-dependent protein kinase 1 (Homo sapiens) (UniProt Q13976); conditions: Compound concentration 1000.0 nM
Sequence of cGMP-dependent protein kinase 1 (Homo sapiens) (Q13976 whole entry): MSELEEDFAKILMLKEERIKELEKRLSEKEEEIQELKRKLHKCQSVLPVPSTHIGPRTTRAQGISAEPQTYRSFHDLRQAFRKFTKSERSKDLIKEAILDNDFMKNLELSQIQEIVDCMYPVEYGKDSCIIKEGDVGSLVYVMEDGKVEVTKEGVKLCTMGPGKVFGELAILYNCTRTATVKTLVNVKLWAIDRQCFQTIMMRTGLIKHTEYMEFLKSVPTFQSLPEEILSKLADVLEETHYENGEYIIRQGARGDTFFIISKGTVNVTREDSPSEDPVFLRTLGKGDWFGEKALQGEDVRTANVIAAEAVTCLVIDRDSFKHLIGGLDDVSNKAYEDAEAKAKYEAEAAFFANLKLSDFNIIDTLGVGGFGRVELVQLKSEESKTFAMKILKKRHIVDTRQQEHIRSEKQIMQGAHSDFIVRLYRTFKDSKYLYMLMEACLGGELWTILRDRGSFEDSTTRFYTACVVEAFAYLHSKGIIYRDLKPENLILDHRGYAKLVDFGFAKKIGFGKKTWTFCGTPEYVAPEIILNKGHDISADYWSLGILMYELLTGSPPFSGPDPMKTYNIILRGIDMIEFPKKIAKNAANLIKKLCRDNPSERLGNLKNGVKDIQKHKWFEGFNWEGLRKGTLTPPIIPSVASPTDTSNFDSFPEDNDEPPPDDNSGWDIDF

[37] = system: Tyrosine-protein kinase ABL1 (Homo sapiens), P00519 [F317L]; conditions: Compound concentration 1000.0 nM
Sequence of Tyrosine-protein kinase ABL1 (Homo sapiens), P00519 [F317L] (P00519 whole entry F317L): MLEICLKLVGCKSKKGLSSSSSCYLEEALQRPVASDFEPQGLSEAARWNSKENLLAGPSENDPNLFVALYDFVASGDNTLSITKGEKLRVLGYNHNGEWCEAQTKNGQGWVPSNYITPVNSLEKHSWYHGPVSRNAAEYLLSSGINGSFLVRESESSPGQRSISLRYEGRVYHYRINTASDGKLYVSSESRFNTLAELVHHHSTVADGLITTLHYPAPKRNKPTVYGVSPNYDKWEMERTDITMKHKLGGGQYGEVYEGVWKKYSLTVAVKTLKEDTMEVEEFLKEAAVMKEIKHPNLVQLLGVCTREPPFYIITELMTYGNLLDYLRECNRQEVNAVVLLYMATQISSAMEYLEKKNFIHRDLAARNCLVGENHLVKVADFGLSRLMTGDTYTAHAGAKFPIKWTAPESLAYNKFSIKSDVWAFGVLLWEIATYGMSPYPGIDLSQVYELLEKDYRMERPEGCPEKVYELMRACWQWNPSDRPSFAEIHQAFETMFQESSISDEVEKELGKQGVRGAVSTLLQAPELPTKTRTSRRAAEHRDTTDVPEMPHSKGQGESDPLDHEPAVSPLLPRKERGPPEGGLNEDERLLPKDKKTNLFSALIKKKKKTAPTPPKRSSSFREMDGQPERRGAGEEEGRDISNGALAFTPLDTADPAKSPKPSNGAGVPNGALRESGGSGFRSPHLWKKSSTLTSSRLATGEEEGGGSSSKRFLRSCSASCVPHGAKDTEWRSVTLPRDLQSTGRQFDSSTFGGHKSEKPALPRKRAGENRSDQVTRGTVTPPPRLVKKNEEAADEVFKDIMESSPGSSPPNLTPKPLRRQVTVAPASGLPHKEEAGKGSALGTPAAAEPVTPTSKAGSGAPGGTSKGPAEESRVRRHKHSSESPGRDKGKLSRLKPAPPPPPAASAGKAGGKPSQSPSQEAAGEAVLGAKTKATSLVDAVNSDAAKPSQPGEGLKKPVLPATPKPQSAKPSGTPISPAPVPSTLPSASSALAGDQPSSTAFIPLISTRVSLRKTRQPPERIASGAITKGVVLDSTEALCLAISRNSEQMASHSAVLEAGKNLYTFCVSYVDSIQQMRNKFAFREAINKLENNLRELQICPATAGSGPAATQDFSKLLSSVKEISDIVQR

[38] = target: 5-hydroxytryptamine receptor 5A (Homo sapiens) (UniProt P47898); conditions: Compound concentration 10.0 uM

Sequence of Tyrosine-protein kinase ABL1 (Homo sapiens), P00519 [F317I] (P00519 whole entry F317I): as the sequence (P00519 whole entry F317L) above, with L317I counted along it

CCC(=N\O)/C(C)=C/c1ccc(F)cc1 [A-079]
inactive: residual activity [1] 100% | residual activity [2] 85% | residual activity [3] 77% | residual activity [4] 89% | residual activity [5] 100% | residual activity [6] 83% | residual activity [7] 100% | residual activity [8] 100% | residual activity [9] 79% | inhibition [10] -4.62% | residual activity [11] 81% | residual activity [12] 83% | residual activity [13] 100% | inhibition [14] 12.2% | residual activity [15] 80% | residual activity [16] 96% | residual activity [17] 74% | residual activity [18] 93% | residual activity [19] 79% | residual activity [20] 96% | residual activity [21] 78% | residual activity [22] 86% | residual activity [23] 100% | residual activity [24] 76% | residual activity [25] 90% | residual activity [26] 100% | residual activity [27] 100% | residual activity [28] 71% | residual activity [29] 100% | residual activity [30] 88% | residual activity [31] 84% | residual activity [32] 100% | residual activity [33] 100% | residual activity [34] 83% | residual activity [35] 89% | residual activity [36] 100% | residual activity [37] 81% | inhibition [38] 3.01%

CCC(=N\O)/C(C)=C/c1ccc(F)c(C)c1 [A-226]
inactive: residual activity [1] 56% | residual activity [2] 100% | residual activity [3] 100% | residual activity [4] 63% | residual activity [5] 78% | residual activity [6] 99% | residual activity [7] 100% | residual activity [8] 100% | residual activity [9] 88% | inhibition [10] 0.44% | residual activity [11] 78% | residual activity [12] 100% | residual activity [13] 57% | inhibition [14] 11.8% | residual activity [15] 90% | residual activity [16] 83% | residual activity [17] 100% | residual activity [18] 100% | residual activity [19] 100% | residual activity [20] 100% | residual activity [21] 88% | residual activity [22] 100% | residual activity [23] 100% | residual activity [24] 73% | residual activity [25] 99% | residual activity [26] 100% | residual activity [27] 100% | residual activity [28] 100% | residual activity [29] 100% | residual activity [30] 71% | residual activity [31] 100% | residual activity [32] 100% | residual activity [33] 100% | residual activity [34] 100% | residual activity [35] 100% | residual activity [36] 100% | residual activity [37] 100% | inhibition [38] -3.24%
